Patent US20250066286A1, “COMPOSITIONS OF (Z)-ENDOXIFEN AND METHODS OF ENRICHMENT THEREOF” (Atossa Therapeutics, Inc., priority 2022, published 2025)
Read-outs that look alike come from different tables or passages of the source. Values belong to the compound of their own block, whether it stands above or below them.

Columns and labels:
[1] = Thermal treatment of Form IV at 90° C. and 50 mbar (XRPD); type: physicochemical
Experimental: To confirm the DSC results, Form IV deterioration was subject to thermal treatment by incubation for 1 hour at 90° C. and 50 mbar, storage for 18 hours at room temperature, and a second incubation for 3.5 hours 90° C. and 50 mbar. XRPD analysis was performed on the sample following the 1 hour incubation at 90° C. and 50 mbar, after the 18 hours of storage at room temperature, and after the final 3.5 hour incubation 90° C. and 50 mbar.

[2] = Thermogravimetric analysis (TGA), degradation; type: physicochemical
Experimental: The TGA profile of Form I is shown in the top panel of FIG. 12 with the heat-flow profile in the middle panel of FIG. 12, and the first derivative of the TGA profile in the bottom pane of FIG. 12. […] A weight loss of 0.2% was detected between 140° C. and 180° C., potentially ascribable to solvent release. Degradation of Form I took place above 270° C. The heat-flow profile included two main peaks around 50° C. and 160° C. The first derivative of the TGA profile indicated a greatest decline in the TGA profile occurred around 400° C., and that weight loss occurred around 320° C.

[3] = Mechanical stability: grinding and kneading by ball milling (XRPD); type: physicochemical
Experimental: Stability tests were performed on mixtures of Form I and Form IV; Form I and Form VII; and Form I, Form IV, and Form VII. In a first mechanical stability test, the polymorphs were analyzed by XRPD following 10 minutes of grinding by ball milling at 30 Hz. In a second mechanical stability test, the polymorphs were analyzed by XRPD following 10 minutes of kneading by ball milling at 30 Hz in the presence of a catalytic amount of 2-propanol (2 μl).

[4] = Storage stability of polymorphic forms at room temperature in a sealed vial (XRPD time course); type: physicochemical; details: room temperature
Experimental: Form I samples were collected for XR-PD analysis following 0, 7, and 42 days of storage, the results of which are shown in FIG. 10.
The stability of polymorphic Form IV was evaluated over 7 days of storage at room temperature in a sealed vial. Portions of the Form IV samples were collected for XRPD analysis following 0 (Form IV), 3 (Form IV-3D3-storage), and 7 days (Form IV-7D3-storage) of storage, the results of which are shown in FIG. 14.
The stability of polymorphic Form IV was also evaluated following crystallization from a room temperature 2-propanol/THF 95/5 (v/v) solvent system containing 40 mg/ml (Z)-endoxifen. XPRD was collected immediately after recovery and following 15 days storage at room temperature in a sealed vial. FIG. 15 provides the resultant XRPD patterns following 15 days storage (Form IV-2PR/THF-15D-storage) and 0 days storage (Form IV-2PR/THF-0D-storage), as well as an XRPD spectrum of Form IV (Form IV) obtained from 2-propanol recrystallization.
Since the room temperature evaporation in acetone yielded a mixture of polymorphic Form I and Form IV XRPD patterns with a very intense unassigned signal at 16.1° 2θ, the sample was re-measured following 7 days storage in a sealed vial. From top to bottom, FIG. 16 provides XRPD patterns of the acetone-generated polymorphs following 7 (EVRT-ACT-7D-storage) and 0 days of storage (EVRT-ACT-0D-storage), a Form IV spectrum (Form IV), and a Form I (Form I) spectrum, respectively.
Form XVII was further assessed after 3 days storage in a sealed vial at room temperature.
Form XVIII was further reassessed by XRPD following 3 and 7 days storage at room temperature in a sealed vial. The data from these analyses are summarized in FIG. 24, which (from top to bottom) provides the sample following 7 days storage (Form XVIII-7D-storage), the sample following 3 days storage (Form XVIII-3D-storage), and the sample immediately following crystallization (Form XVIII).
Form XIX room temperature stability was evaluated with XRPD. XRPD of a Form XIX sample immediately following crystallization (Form XIX) and following 7 days of storage (Form XIX-7D-storage) are shown in FIG. 26.
The stability of polymorphic Form V was over 10 days of storage at room temperature in a sealed vial. XR-PD was performed following 0, 3, and 10 days storage.
To evaluate Form VI stability, XRPD spectra of a Form VI sample were collected following 0, 3, and 14 days of room temperature storage in a sealed vial. The resulting XRPD patterns of the sample following 0 (Form VI), 3 (Form VI-3D-storage), and 14 days storage (Form VI-14D-storage) are shown in FIG. 30.
The stability of polymorphic Form VII was evaluated over 7 days of storage at room temperature in a sealed vial. Portions of the Form VII samples were collected for XRPD analysis over 7 days of storage, the results of which are shown in FIG. 32.
Form VIII stability over 7 days storage in a sealed vial at room temperature was evaluated with XRPD.
The stability of Form IX generated by precipitation from an ethyl acetate/heptane solvent system (Form IX Recrystallization (1)) was evaluated over 7 days of storage at room temperature. Portions of the Form IX sample were collected following 0 and 7 days of storage in a sealed vial and analyzed by XRPD analysis to identify possible changes in the polymorph.
Form IX stability was separately characterized for crystals generated through the addition of (Z)-endoxifen saturated ethyl acetate to heptane (Form IX Recrystallization (2)), which yielded higher crystallinity Form IX than was afforded by heptane addition to (Z)-endoxifen saturated ethyl acetate.
Form IX stability was further evaluated for crystals generated by precipitation from an acetone/butyl methyl ether (acetone/BME) solvent/antisolvent mixture (Form IX Recrystallization (4)). Portions of the Form IX sample were collected following 0 and 5 days of storage in a sealed vial at room temperature and compared to reference XRPD patterns of Forms VII and IX. […]

[5] = Stability at various temperatures and relative humidities, seven days (XRPD); type: physicochemical; details: 7 days
Experimental: The stabilities of the polymorphs were also assessed at various temperatures and relative humidities. These analyses were performed by storing 20 mg of polymorph samples for seven days at: (1) 25° C. and 100% relative humidity, (2) 40° C. and 75% relative humidity, (3) 25° C. and 60% relative humidity, and (4) at 60° C. and 75% relative humidity. XRPD was collected on the samples following these incubations and compared to XRPD of the samples prior to storage.

[6] = Slurries with amorphous (Z)-endoxifen (XRPD); type: physicochemical; details: for Polymorphic form recovered (XRPD): 22 days stirring at room temperature
Experimental: Further slurry experiments were performed utilizing amorphous (Z)-endoxifen as an input. 20 mg of amorphous (Z)-endoxifen was suspended in 200 μl of various solvent mixtures. Following 22 days of stirring at room temperature, solid (Z)-endoxifen was recovered from the slurries during centrifugation at 4000 rpm for 3 minutes with a nylon filter (0.22 μm).

[7] = cited from earlier work

- XRPD pattern after thermal treatment ([1]; after 1 hour at 90° C. and 50 mbar): Form IV with traces of Form I
- XRPD pattern after thermal treatment ([1]; after final 3.5 hour treatment at 90° C. and 50 mbar (following 1 hour at 90° C. and 18 hours at room temperature)): Form IV with traces of Form I
- Degradation temperature (TGA) [2]: above 270 °C
- Degradation temperature (TGA) ([2]; sample from scaled-up crystallization): above 270 °C
- XRPD pattern after kneading ([3]; 10 minutes ball milling at 30 Hz with catalytic 2-propanol (2 μl)): mixture of Form I and Form IV
- XRPD change on storage ([4]; 7 days, sealed vial): stable under ambient conditions
- XRPD pattern after storage ([5]; 25° C. and 100% relative humidity): Form I with trace of Form IV
- XRPD pattern after storage ([5]; 40° C. and 75% relative humidity): Form I with minor traces of Form IV
Structure (SMILES): CC/C(=C(\c1ccc(O)cc1)c1ccc(OCCNC)cc1)c1ccccc1 [Form IV, (Z)-endoxifen]
- XRPD pattern after mechanical grinding ([3]; 10 minutes ball milling at 30 Hz): Form I with a mild signal at 4.8° 20 ascribable to Form IV
- XRPD change on storage ([4]; 15 days, sealed vial, sample crystallized from 2-propanol/THF 95/5 (v/v)): maintained a Form IV XRPD pattern following 15 days storage, its XRPD spectrum also exhibited a new signal at 16.1° 2θ

- Output Main phase [phase] ([6]; SLRT: acetone/tetrahydrofuran 90/10, 100 mg/mL, RT, 22 d, amorphous input): Form I
- Polymorphic form recovered (XRPD) ([6]; acetone/tetrahydrofuran slurry): Form I with additional unassigned peaks
- Polymorphic form recovered (XRPD) ([6]; ethyl acetate/heptane slurry): Form IX
- Polymorphic form recovered (XRPD) ([6]; one of the 2-propanol/tetrahydrofuran slurries): Form IV
Structure (SMILES): CC/C(=C(\c1ccc(O)cc1)c1ccc(OCCNC)cc1)c1ccccc1 [amorphous (Z)-endoxifen, (Z)-endoxifen]
- XRPD change on storage ([4]; 18 days): stable and does not convert into other polymorphic forms

Structure (SMILES): CC/C(=C(\c1ccccc1)c1ccc(OCCN(C)C)cc1)c1ccccc1 [tamoxifen, (Z)-2-[4-(1,2-diphenyl-1-butenyl)phenoxy]-N,N-dimethylethanamine]
- Terminal elimination half-life ([7]; in vivo): 120 to 170 h
- Peak concentration time ([7]; post-dose): approximately 5 hours
- Reported therapeutic levels of plasma tamoxifen ([7]; subjects dosed with 20 mg of oral tamoxifen): ≥ 30 nM
